Values joined by “and” are separate entries in the source; they are usually repeats but may differ in a detail not shown here. Identical values can stand only once.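 Following 48 hours of exposure in 96-well plates, responses at five concentrations were used to interpolate endpoints linearly. GI50: concentration for 50% inhibition of growth. The concentration for full growth arrest is given as TGI.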
Experiments:
Experiment in all cases: inhibition of tumour cell growth, NCI panel, 48 h
EKVX NSCLC = tested on: EKVX NSCLC
KM12 colon = tested on: KM12 colon
NCI/ADR-RES ovarian = tested on: NCI/ADR-RES ovarian
OVCAR-4 ovarian = tested on: OVCAR-4 ovarian
SF-539 CNS = tested on: SF-539 CNS
SK-MEL-5 melanoma = tested on: SK-MEL-5 melanoma
SK-OV-3 ovarian = tested on: SK-OV-3 ovarian
U251 CNS = tested on: U251 CNS
SK-MEL-28 melanoma = tested on: SK-MEL-28 melanoma
MDA-MB-231 breast = tested on: MDA-MB-231 breast

SMILES	GI50 (EKVX NSCLC) [µM]	TGI (EKVX NSCLC) [µM]	TGI (KM12 colon)	GI50 (NCI/ADR-RES ovarian)	TGI (NCI/ADR-RES ovarian)	GI50 (OVCAR-4 ovarian) [µM]	TGI (OVCAR-4 ovarian) [µM]	GI50 (SF-539 CNS)	TGI (SF-539 CNS)	GI50 (SK-MEL-5 melanoma) [µM]	TGI (SK-MEL-5 melanoma) [µM]	GI50 (SK-OV-3 ovarian) [µM]	TGI (SK-OV-3 ovarian) [µM]	TGI (U251 CNS)	TGI (SK-MEL-28 melanoma) [µM]	GI50 (KM12 colon) [µM]	GI50 (MDA-MB-231 breast) [µM]	TGI (MDA-MB-231 breast) [µM]	GI50 (SK-MEL-28 melanoma) [µM]	GI50 (U251 CNS) [µM]
CN1CCN(CCCN2c3ccccc3Sc3ccc(Cl)cc32)CC1	5.46	12.4	12.4 µM and 95.2 µM	6 µM and 44.5 µM	12.8 µM and 78.6 µM	5.74	12.4	7.49 µM and 51.6 µM	14.6 µM and 87.9 µM	48.5	62	6.93	13.8	11.8 µM and 87.3 µM						
COc1cccc(C2SCc3nc4ccccc4n32)c1 (stereo not drawn)		> 100	> 100 µM				> 100		> 100 µM		65.7		> 100	> 100 µM	> 100					
CCCCCCCCCCCCCCCCN(CC)CC	2.02	4.76	3.59 µM			3.31	11.1	1.67 µM	3.06 µM	1.94	3.79	3.1	9.8		3.84	1.87	1.75	3.21	1.91	
COc1cc(C2CC(=O)Nc3c2c(C)nn3-c2nc3ccccc3[nH]2)cc(OC)c1O (stereo not drawn)			12.4 µM	7.81 µM	> 78.2 µM	2.43	11.4	3.1 µM	13.5 µM	1.83	3.62	2.7	5.9	> 40.8 µM	6.58	3.26	2.98	8.15	2.4	3.49
O=C1NC(=NCCc2ccccn2)S/C1=C\c1ccc2ncccc2c1			> 25 µM	> 18.5 µM	> 25 µM	14.1	> 25	6.68 µM	> 25 µM	10.8	> 25	9.1	> 25	> 25 µM	> 25	18.2	18.5	> 25	15.4	9.23
Cn1c(=O)c(Oc2ccc(F)cc2F)cc2cnc(NC3CCOCC3)nc21			> 25 µM	> 25 µM	> 25 µM	> 25	> 25	> 25 µM	> 25 µM	> 25	> 25	> 25	> 25	> 25 µM	> 25	> 25	> 25	> 25	> 25	> 25
CN(C)c1ccccc1[CH2][Ga]([Cl])[CH2]c1ccccc1N(C)C	0.794	2.24	2.24 µM	1.87 µM	4.22 µM	1.24	3.07	1.7 µM	3.5 µM	1.22	2.49	1.71	3.8	2.41 µM		0.635	1.31	2.71		1.16
O=C1c2cc(F)ccc2-c2c1c1ccc([N+](=O)[O-])cc1c(=O)n2CCCBr	> 100	> 100	> 100 µM	4.37 µM	41.3 µM	> 100	> 100			11.7	40.3	20.2	> 100	> 100 µM	> 100	20.9	> 100	> 100	69.6	9.87
COc1cc2nc3cc([N+](=O)[O-])ccc3c(NCCNCC(C)O)c2cc1OC (stereo not drawn)	1.62	5.34	2.87 µM	7.42 µM	23.6 µM	0.886	2.92	0.693 µM	2.47 µM			1.98	5.35	2.26 µM		0.619	0.604	3.08		0.442
N#CC1=C(N)Oc2c(sc3c(Br)cccc23)C1c1ccc(Cl)cc1 (stereo not drawn)	2.23	17.4	6.2 µM	0.332 µM	1.35 µM	1.13	16.1			0.559	2.72	0.464	11.6	2.36 µM	4.45	0.389	1.32	4.69	1.15	0.563
C=C1CC2(CCS(=O)(=O)c3ccccc32)OC1=O (stereo not drawn)		33.1	37.8 µM				26.7		18.1 µM		27		44.1	26 µM	27.8					
Cc1c2c(nn1-c1ccc(S(=O)(=O)NC(=S)NC(=O)c3ccccc3)cc1)-c1ccccc1CC2			> 100 µM	> 100 µM	> 100 µM	> 100	> 100			30.7	96.5	> 100	> 100	> 100 µM	> 100	34.5	42.5	> 100	41.1	43.3
C=CCOC(=O)Nc1cccn([C@H](CC(C)C)C(=O)NCCC(C)C)c1=O			> 100 µM	57.9 µM	> 100 µM	28.1	> 100	> 100 µM	> 100 µM	74.7	> 100	> 100	> 100	> 100 µM	> 100	92.8	21.1	67.2	> 100	92.3
COc1cc(CCC(=O)NC[C@@H](O)c2ccccc2)ccc1O	> 100	> 100	> 100 µM			> 100	> 100	> 100 µM	> 100 µM	> 100	> 100	> 100	> 100	> 100 µM		> 100	> 100	> 100		> 100
NCCSC(c1ccccc1)(c1ccccc1)c1ccccc1			4.82 µM	1.86 µM	5.71 µM	2.94	12.9	1.36 µM	3.21 µM	1.01	2.25	0.512	12.5	1.72 µM	3.34	1.84	0.607	2.33	1.64	0.373
CN1C(=O)C2(c3ccccc31)C1CC3C(CO1)C1C2C3(CO)CN1C#N (stereo not drawn)		> 100	> 100 µM		> 100 µM		> 100				> 100		> 100	> 100 µM	> 100			> 100		
COc1cc(/C=C/C(=O)c2c(-c3ccc(F)cc3)nc3sc(C)nn23)cc(OC)c1OC			4.59 µM	2.57 µM	9.91 µM	3.61	85.6	2.09 µM	4.54 µM	1.86	3.99	2.99	8.91	5.45 µM	4.9	1.97	1.99	8.51	2.19	2.01

SMILES	GI50 (EKVX NSCLC) [µM]	TGI (EKVX NSCLC) [µM]	TGI (KM12 colon)	GI50 (NCI/ADR-RES ovarian)	TGI (NCI/ADR-RES ovarian)	GI50 (OVCAR-4 ovarian) [µM]	TGI (OVCAR-4 ovarian) [µM]	GI50 (SF-539 CNS)	TGI (SF-539 CNS)	GI50 (SK-MEL-5 melanoma) [µM]	TGI (SK-MEL-5 melanoma) [µM]	GI50 (SK-OV-3 ovarian) [µM]	TGI (SK-OV-3 ovarian) [µM]	TGI (U251 CNS)	TGI (SK-MEL-28 melanoma) [µM]	GI50 (KM12 colon) [µM]	GI50 (MDA-MB-231 breast) [µM]	TGI (MDA-MB-231 breast) [µM]	GI50 (SK-MEL-28 melanoma) [µM]	GI50 (U251 CNS) [µM]
N#CCc1nnc(N)o1		> 100	> 100 µM						> 100 µM				> 100	> 100 µM	> 100					
O=C(O)CN(c1ccc(F)cc1)S(=O)(=O)c1ccccc1		> 100	> 100 µM				> 100		> 100 µM		> 100		> 100	> 100 µM	> 100					
COC(=O)C1[C@H](c2ccc3c(c2)OCO3)OC(=O)[C@]1(C(=O)OC)C(=O)c1ccc(OC)c(OC)c1 (stereo partly drawn)		> 100	> 100 µM				> 100				> 100		> 100	> 100 µM						
CC[PH+](CC)CC.CC[PH+](CC)CC.[Au]	5.83	11.5	33.3 µM			12.5	25.1	8.3 µM	25.3 µM	3.5	17.5	20.9	35.2	24.3 µM	16.9	16.3			3.88	8.21
CCOC(=O)CN(c1ccccc1)c1nc(=[N+](C)C)ss1							32.7		> 100 µM				> 100	41.5 µM	> 100					
O=C(c1ccccc1)c1nc2ccc(C(F)(F)F)cc2nc1N1CCN(c2ccccc2)CC1	79.3	> 100	> 100 µM	34.2 µM	> 100 µM			52.9 µM	> 100 µM	15.9	32.7	> 100	> 100	> 100 µM		95.1	23.4	63.9		60.9
O=[N+]([O-])c1ccc2c(c1)C(c1ccccc1Cl)=Nc1c(n[nH]c1-c1cccnc1)N2			> 25 µM	> 25 µM	> 25 µM	> 19.8	> 25	> 25 µM	> 25 µM	> 25	> 25	> 25	> 25	> 25 µM	> 25	9.41	> 25	> 25	> 25	> 25
CC(=O)OCC1OC(n2ncc(=O)[nH]c2=O)C(OC(C)=O)C1OC(C)=O (stereo not drawn)			> 100 µM		> 100 µM		> 100		> 100 µM		> 100		> 100	> 100 µM	> 100					
O=c1cccc2n1CC1CNC[C@H]2C1		> 100	> 100 µM		> 100 µM		> 100				> 100		> 100	> 100 µM	> 100			> 100		
[Cu+2].[NH-]C(CC(=O)O)C(=O)O.[NH-]C(CC(=O)O)C(=O)O (stereo not drawn)	> 100	> 100	> 100 µM	> 100 µM	> 100 µM	99.2	> 100			26.5	> 100	> 100	> 100	> 100 µM	> 100	> 100	> 100	> 100	> 100	> 100
Cc1ccc(C(=O)NCCN(C)C)c2nc3ccccc3cc12		4.76	6.91 µM				> 100				2.95		> 100	4.09 µM	5.46					
CC(=O)N[C@@H](Cc1ccc(OP(=O)(O)O)cc1)C(=O)N[C@H]1CCC(=O)N2CCC[C@@H](C(=O)NCc3ccccc3)N2C1=O			> 25 µM	> 25 µM	> 25 µM	> 25	> 25	> 25 µM	> 25 µM	> 25	> 25	> 25	> 25	> 25 µM	> 25	> 25	> 25	> 25	> 25	> 25
Cc1ccc(C2=Nc3ccccc3S(=O)C(c3ccc4c(c3)OCO4)C2)cc1 (stereo not drawn)		> 100	57.8 µM				> 100		46.3 µM		29.2		91.3	31.1 µM	89.9					
NC(N)=N/N=C/c1c(-c2cccnc2)nc2sc(Cl)cn12	16.7	32.9	14.3 µM	52.2 µM	> 100 µM			13.4 µM	26.3 µM	15.2	28.6			26.1 µM		3.95	7.95	21.9		13.3
O=C1C(=O)N(c2ccc(Cl)cc2)C(=O)C(=Nc2cccc3c(=O)[nH][nH]c(=O)c23)C1c1nc2ccccc2o1 (stereo not drawn)		> 100	> 100 µM				> 100		> 100 µM		> 100		> 100	> 100 µM	> 100					
C=CC(=O)N1CC[C@H](n2nc(C#Cc3cc(OC)cc(OC)c3)c3c(N)ncnc32)C1	30.7	> 100	> 100 µM	12.7 µM	> 100 µM	3.47	> 100	2.6 µM	65.9 µM	9.57	67.8			> 100 µM	> 100	11.2	4.07	> 100	21.9	6.38
